Assay results taken from ChEMBL document CHEMBL1671689, “Activity of ceftaroline against recent emerging serotypes of Streptococcus pneumoniae in the United States” (2010).
In brackets after ≈: the same amount, converted by molar mass.

Experiments:
Assay type in all cases: functional
Streptococcus pneumoniae [1] = assay: Antimicrobial activity against multiple drug resistant Streptococcus pneumoniae serotype 19A by broth microdilution method
Streptococcus pneumoniae [2] = assay: Antimicrobial activity against Streptococcus pneumoniae serotype 6C by broth microdilution method
Streptococcus pneumoniae [3] = assay: Antimicrobial activity against Streptococcus pneumoniae serotype 7F by broth microdilution method
Streptococcus pneumoniae [4] = assay: Antimicrobial activity against multiple drug resistant Streptococcus pneumoniae serotype 6B by broth microdilution method
Streptococcus pneumoniae [5] = assay: Antimicrobial activity against Streptococcus pneumoniae serotype 3 by broth microdilution method
Streptococcus pneumoniae [6] = assay: Antimicrobial activity against Streptococcus pneumoniae serotype 11A by broth microdilution method
Streptococcus pneumoniae [7] = assay: Antimicrobial activity against multiple drug resistant Streptococcus pneumoniae serotype 19F by broth microdilution method
Streptococcus pneumoniae [8] = assay: Antimicrobial activity against Streptococcus pneumoniae serotype 35B by broth microdilution method
Streptococcus pneumoniae [9] = assay: Antimicrobial activity against Streptococcus pneumoniae serotype 19A by broth microdilution method
Streptococcus pneumoniae [10] = assay: Antimicrobial activity against Streptococcus pneumoniae serotype 23A assessed as percent susceptible isolates by broth microdilution method
Streptococcus pneumoniae [11] = assay: Antimicrobial activity against Streptococcus pneumoniae serotype 19A assessed as percent susceptible isolates by broth microdilution method
Streptococcus pneumoniae [12] = assay: Antimicrobial activity against Streptococcus pneumoniae serotype 15A assessed as percent susceptible isolates by broth microdilution method
Streptococcus pneumoniae [13] = assay: Antimicrobial activity against Streptococcus pneumoniae serotype 6C assessed as percent susceptible isolates by broth microdilution method
Streptococcus pneumoniae [14] = assay: Antimicrobial activity against multiple drug resistant Streptococcus pneumoniae serotype 6B assessed as percent susceptible isolates by broth microdilution method
Streptococcus pneumoniae [15] = assay: Antimicrobial activity against Streptococcus pneumoniae serotype 7F assessed as percent susceptible isolates by broth microdilution method
Streptococcus pneumoniae [16] = assay: Antimicrobial activity against Streptococcus pneumoniae serotype 3 assessed as percent susceptible isolates by broth microdilution method
Streptococcus pneumoniae [17] = assay: Antimicrobial activity against multiple drug resistant Streptococcus pneumoniae serotype 19A assessed as percent susceptible isolates by broth microdilution method
Streptococcus pneumoniae [18] = assay: Antimicrobial activity against Streptococcus pneumoniae serotype 19F assessed as percent susceptible isolates by broth microdilution method
Streptococcus pneumoniae [19] = assay: Antimicrobial activity against Streptococcus pneumoniae serotype 22F assessed as percent susceptible isolates by broth microdilution method
Streptococcus pneumoniae [20] = assay: Antimicrobial activity against Streptococcus pneumoniae serotype 35B assessed as percent susceptible isolates by broth microdilution method
Streptococcus pneumoniae [21] = assay: Antimicrobial activity against Streptococcus pneumoniae serotype 23B assessed as percent susceptible isolates by broth microdilution method
Streptococcus pneumoniae [22] = assay: Antimicrobial activity against Streptococcus pneumoniae serotype 11A assessed as percent susceptible isolates by broth microdilution method
Streptococcus pneumoniae [23] = assay: Antimicrobial activity against multiple drug resistant Streptococcus pneumoniae serotype 19F assessed as percent susceptible isolates by broth microdilution method

SMILES | MIC50 (Streptococcus pneumoniae [2]) [µg/mL] | MIC90 (Streptococcus pneumoniae [2]) [µg/mL] | MIC (Streptococcus pneumoniae [3]) [µg/mL] | MIC50 (Streptococcus pneumoniae [3]) [µg/mL] | MIC90 (Streptococcus pneumoniae [3]) [µg/mL] | MIC50 (Streptococcus pneumoniae [4]) [µg/mL] | MIC90 (Streptococcus pneumoniae [4]) [µg/mL] | MIC50 (Streptococcus pneumoniae [5]) [µg/mL] | MIC90 (Streptococcus pneumoniae [5]) [µg/mL] | MIC50 (Streptococcus pneumoniae [6]) [µg/mL] | MIC90 (Streptococcus pneumoniae [6]) [µg/mL] | MIC50 (Streptococcus pneumoniae [7]) [µg/mL] | MIC90 (Streptococcus pneumoniae [7]) [µg/mL] | MIC50 (Streptococcus pneumoniae [8]) [µg/mL] | MIC90 (Streptococcus pneumoniae [8]) [µg/mL] | MIC50 (Streptococcus pneumoniae [9]) [µg/mL] | MIC90 (Streptococcus pneumoniae [9]) [µg/mL] | Activity (Streptococcus pneumoniae [10]) [%] | Activity (Streptococcus pneumoniae [11]) [%] | Activity (Streptococcus pneumoniae [12]) [%] | also measured
CCO/N=C(\C(=O)N[C@@H]1C(=O)N2C(C(=O)[O-])=C(Sc3nc(-c4cc[n+](C)cc4)cs3)CS[C@H]12)c1nsc(NP(=O)(O)O)n1 [CEFTAROLINE FOSAMIL] | 0.015 (≈ 0.0219 µM) | 0.06 (≈ 0.0876 µM) | ≤ 0.008 | ≤ 0.008 | 0.015 (≈ 0.0219 µM) | 0.25 (≈ 0.365 µM) | 0.25 (≈ 0.365 µM) | ≤ 0.008 | ≤ 0.008 | 0.06 (≈ 0.0876 µM) | 0.06 (≈ 0.0876 µM) | 0.25 (≈ 0.365 µM) | 0.25 (≈ 0.365 µM) | 0.12 (≈ 0.175 µM) | 0.12 (≈ 0.175 µM) | 0.12 (≈ 0.175 µM) | 0.25 (≈ 0.365 µM) |  |  |  | MIC50 (Streptococcus pneumoniae [1]): 0.25 µg/mL (≈ 0.365 µM); MIC90 (Streptococcus pneumoniae [1]): 0.25 µg/mL (≈ 0.365 µM); MIC (Streptococcus pneumoniae [5]): ≤ 0.008 µg/mL
CO/N=C(\C(=O)N[C@@H]1C(=O)N2C(C(=O)O)=C(CSc3nc(=O)c(O)nn3C)CS[C@H]12)c1csc(N)n1 [CEFTRIAXONE] | 0.25 (≈ 0.451 µM) | 0.25 (≈ 0.451 µM) | ≤ 0.25 | ≤ 0.25 | ≤ 0.25 | 2 (≈ 3.61 µM) | 4 (≈ 7.21 µM) | ≤ 0.25 | ≤ 0.25 | ≤ 0.25 | ≤ 0.25 | 2 (≈ 3.61 µM) | 4 (≈ 7.21 µM) | 1 (≈ 1.8 µM) | 1 (≈ 1.8 µM) | 1 (≈ 1.8 µM) | 2 (≈ 3.61 µM) | 100 | 65.6 | 100 | MIC50 (Streptococcus pneumoniae [1]): 2 µg/mL (≈ 3.61 µM); MIC90 (Streptococcus pneumoniae [1]): 4 µg/mL (≈ 7.21 µM); Activity (Streptococcus pneumoniae [13]): 100%; Activity (Streptococcus pneumoniae [14]): 43.9%; Activity (Streptococcus pneumoniae [15]): 98.3%; Activity (Streptococcus pneumoniae [16]): 100%; MIC (Streptococcus pneumoniae [5]): ≤ 0.25 µg/mL; MIC (Streptococcus pneumoniae [6]): ≤ 0.25 µg/mL; Activity (Streptococcus pneumoniae [17]): 43.9%; Activity (Streptococcus pneumoniae [18]): 65.5%; Activity (Streptococcus pneumoniae [19]): 100%; Activity (Streptococcus pneumoniae [20]): 98.3%; Activity (Streptococcus pneumoniae [21]): 97%; Activity (Streptococcus pneumoniae [22]): 98%; Activity (Streptococcus pneumoniae [23]): 43.9%
CO/N=C(\C(=O)N[C@@H]1C(=O)N2C(C(=O)O)=C(COC(N)=O)CS[C@H]12)c1ccco1 [CEFUROXIME] | 2 (≈ 4.71 µM) | 4 (≈ 9.43 µM) | ≤ 1 | ≤ 1 | ≤ 1 | 8 (≈ 18.9 µM) | > 8 | ≤ 1 | ≤ 1 | ≤ 1 | ≤ 1 | 8 (≈ 18.9 µM) | > 8 | 4 (≈ 9.43 µM) | 4 (≈ 9.43 µM) | 8 (≈ 18.9 µM) | > 8 | 96.4 | 36.1 | 91.4 | MIC50 (Streptococcus pneumoniae [1]): 8 µg/mL (≈ 18.9 µM); Activity (Streptococcus pneumoniae [13]): 47.5%; Activity (Streptococcus pneumoniae [14]): 0%; Activity (Streptococcus pneumoniae [15]): 9.6%; Activity (Streptococcus pneumoniae [16]): 100%; MIC (Streptococcus pneumoniae [5]): ≤ 1 µg/mL; MIC (Streptococcus pneumoniae [6]): ≤ 1 µg/mL; Activity (Streptococcus pneumoniae [17]): 0%; Activity (Streptococcus pneumoniae [18]): 20.7%; Activity (Streptococcus pneumoniae [19]): 100%; Activity (Streptococcus pneumoniae [20]): 9.6%; Activity (Streptococcus pneumoniae [21]): 96.8%; Activity (Streptococcus pneumoniae [22]): 95.2%; Activity (Streptococcus pneumoniae [23]): 0%
CCC[C@@H]1C[C@@H](C(=O)N[C@@H]([C@H]2O[C@H](SC)[C@H](O)[C@@H](O)[C@H]2O)[C@H](C)Cl)N(C)C1 [CLINDAMYCIN] | ≤ 0.25 | ≤ 0.25 | ≤ 0.25 | ≤ 0.25 | ≤ 0.25 | > 2 | > 2 | ≤ 0.25 | ≤ 0.25 | ≤ 0.25 | ≤ 0.25 | > 2 | > 2 | ≤ 0.25 | ≤ 0.25 | > 2 | > 2 | 81.8 | 43.4 | 10.5 | MIC (Streptococcus pneumoniae [1]): > 1 µg/mL; Activity (Streptococcus pneumoniae [13]): 97.7%; Activity (Streptococcus pneumoniae [14]): 0%; Activity (Streptococcus pneumoniae [15]): 100%; Activity (Streptococcus pneumoniae [16]): 96.3%; MIC (Streptococcus pneumoniae [8]): ≤ 0.25 µg/mL; Activity (Streptococcus pneumoniae [17]): 0%; Activity (Streptococcus pneumoniae [18]): 31%; Activity (Streptococcus pneumoniae [19]): 100%; Activity (Streptococcus pneumoniae [20]): 100%; Activity (Streptococcus pneumoniae [21]): 100%; Activity (Streptococcus pneumoniae [22]): 95.9%; Activity (Streptococcus pneumoniae [23]): 0%
CC[C@H]1OC(=O)[C@H](C)[C@@H](O[C@H]2C[C@@](C)(OC)[C@@H](O)[C@H](C)O2)[C@H](C)[C@@H](O[C@@H]2O[C@H](C)C[C@H](N(C)C)[C@H]2O)[C@](C)(O)C[C@@H](C)C(=O)[C@H](C)[C@@H](O)[C@]1(C)O [ERYTHROMYCIN] | > 2 | > 2 | ≤ 0.25 | ≤ 0.25 | ≤ 0.25 | > 8 | > 8 | ≤ 0.25 | ≤ 0.25 | ≤ 0.25 | > 2 | > 8 | > 8 | ≤ 0.25 | > 2 | > 2 | > 2 | 78.8 | 26.5 | 5.3 | MIC (Streptococcus pneumoniae [1]): > 8 µg/mL; MIC50 (Streptococcus pneumoniae [1]): > 8 µg/mL; MIC90 (Streptococcus pneumoniae [1]): > 8 µg/mL; Activity (Streptococcus pneumoniae [13]): 41.9%; Activity (Streptococcus pneumoniae [14]): 0%; Activity (Streptococcus pneumoniae [15]): 64.4%; Activity (Streptococcus pneumoniae [16]): 95.1%; MIC (Streptococcus pneumoniae [4]): > 8 µg/mL; MIC (Streptococcus pneumoniae [7]): > 8 µg/mL; Activity (Streptococcus pneumoniae [17]): 0%; Activity (Streptococcus pneumoniae [18]): 17.2%; Activity (Streptococcus pneumoniae [19]): 88.6%; Activity (Streptococcus pneumoniae [20]): 64.4%; Activity (Streptococcus pneumoniae [21]): 75.8%; Activity (Streptococcus pneumoniae [22]): 75.5%; Activity (Streptococcus pneumoniae [23]): 0%
CC(=O)NC[C@H]1CN(c2ccc(N3CCOCC3)c(F)c2)C(=O)O1 [LINEZOLID] | 1 (≈ 2.96 µM) | 1 (≈ 2.96 µM) |  | 0.5 (≈ 1.48 µM) | 1 (≈ 2.96 µM) | 0.5 (≈ 1.48 µM) | 1 (≈ 2.96 µM) | 0.5 (≈ 1.48 µM) | 1 (≈ 2.96 µM) | 1 (≈ 2.96 µM) | 1 (≈ 2.96 µM) | 0.5 (≈ 1.48 µM) | 1 (≈ 2.96 µM) | 1 (≈ 2.96 µM) | 1 (≈ 2.96 µM) | 0.5 (≈ 1.48 µM) | 1 (≈ 2.96 µM) | 100 | 100 | 100 | MIC50 (Streptococcus pneumoniae [1]): 0.5 µg/mL (≈ 1.48 µM); MIC90 (Streptococcus pneumoniae [1]): 1 µg/mL (≈ 2.96 µM); Activity (Streptococcus pneumoniae [13]): 100%; Activity (Streptococcus pneumoniae [15]): 100%; Activity (Streptococcus pneumoniae [16]): 100%; Activity (Streptococcus pneumoniae [18]): 100%; Activity (Streptococcus pneumoniae [19]): 100%; Activity (Streptococcus pneumoniae [20]): 100%; Activity (Streptococcus pneumoniae [21]): 100%; Activity (Streptococcus pneumoniae [22]): 100%
COc1c(N2C[C@@H]3CCCN[C@@H]3C2)c(F)cc2c(=O)c(C(=O)O)cn(C3CC3)c12 [MOXIFLOXACIN] | ≤ 0.5 | ≤ 0.5 | ≤ 0.5 | ≤ 0.5 | ≤ 0.5 |  |  | ≤ 0.5 | ≤ 0.5 | ≤ 0.5 | ≤ 0.5 |  |  | ≤ 0.5 | ≤ 0.5 | ≤ 0.5 | ≤ 0.5 | 100 | 100 | 100 | Activity (Streptococcus pneumoniae [13]): 100%; Activity (Streptococcus pneumoniae [14]): 99.2%; Activity (Streptococcus pneumoniae [15]): 100%; MIC (Streptococcus pneumoniae [2]): ≤ 0.5 µg/mL; Activity (Streptococcus pneumoniae [16]): 100%; MIC (Streptococcus pneumoniae [5]): ≤ 0.5 µg/mL; MIC (Streptococcus pneumoniae [6]): ≤ 0.5 µg/mL; MIC (Streptococcus pneumoniae [8]): ≤ 0.5 µg/mL; MIC (Streptococcus pneumoniae [9]): ≤ 0.5 µg/mL; Activity (Streptococcus pneumoniae [17]): 99.2%; Activity (Streptococcus pneumoniae [18]): 96.6%; Activity (Streptococcus pneumoniae [19]): 100%; Activity (Streptococcus pneumoniae [20]): 100%; Activity (Streptococcus pneumoniae [21]): 97%; Activity (Streptococcus pneumoniae [22]): 100%; Activity (Streptococcus pneumoniae [23]): 99.2%
